What was measured:
[1] = target: Cyclin-dependent kinase 2/cyclin A (Homo sapiens, UniProt P24941); assay: In vitro inhibitory concentration against cyclin-dependent kinase 2-cyclin A complex using ATP/P33gamma-ATP mix as radioligand; assay type: protein-complex assay
A2780 = assay: Antiproliferative activity against human A2780 cells; assay type: functional, cell-based

Compound | IC50 [1] | IC50 (A2780)
O=C(Nc1cc(C2CC2)[nH]n1)c1c(Cl)cccc1Cl | > 10000 nM | –
NC(=O)c1ccc(-c2ccc(CC(=O)Nc3cc(C4CC4)[nH]n3)cc2)cc1 | 4 nM | 1470 nM
COc1cccc(CC(=O)Nc2cc(C3CC3)[nH]n2)c1 | – | > 20000 nM
CC(C)(C)c1cc(NC(=O)c2ccc(Br)cc2)n[nH]1 | > 10000 nM | –
O=C(Nc1cc(C2CC2)[nH]n1)c1cccc(Cl)c1 | 1000 nM | –
O=C(Cc1ccc(-c2ccc(C(=O)O)cc2)cc1)Nc1cc(C2CC2)[nH]n1 | 11 nM | > 20000 nM
O=C(Cc1ccc(OCCN2CCCC2)cc1)Nc1cc(C2CC2)[nH]n1 | – | 6980 nM
O=C(Nc1cc(C2CCCC2)[nH]n1)c1ccc(Br)cc1 | 50 nM | –
O=C(Nc1cc(C2CCCCC2)[nH]n1)c1ccc(Br)cc1 | 1000 nM | –
O=C(Nc1cc(C2CC2)[nH]n1)c1ccc(Cl)c(Cl)c1 | 83 nM | –
NC(=O)c1ccc(CC(=O)Nc2cc(C3CC3)[nH]n2)cc1 | 74 nM | 2840 nM
O=C(Nc1cc(C2CC2)[nH]n1)c1ccc(Br)cc1 | 34 nM | –
O=C(Nc1cc(Cc2ccccc2)[nH]n1)c1ccc(Br)cc1 | > 10000 nM | –
O=C(Cc1ccc(-c2ccccc2)cc1)Nc1cc(C2CC2)[nH]n1 | – | 111 nM
CCC(C)c1cc(NC(=O)c2ccc(Br)cc2)[nH]n1 (stereo not given) | > 10000 nM | –
O=C(Nc1cc(-c2ccccc2)[nH]n1)c1ccc(Br)cc1 | > 10000 nM | –
COc1ccccc1C(=O)Nc1cc(C2CC2)[nH]n1 | > 10000 nM | –
O=C(Nc1cc(C2CCC2)[nH]n1)c1ccc(Br)cc1 | 90 nM | –
O=C(Nc1cc(C2CC2)[nH]n1)c1cccc(C(F)(F)F)c1 | 500 nM | –
COc1ccc(C(=O)Nc2cc(C3CC3)[nH]n2)cc1 | 705 nM | –
CC(C)c1cc(NC(=O)c2ccc(Br)cc2)n[nH]1 | 200 nM | –
Cc1cc(NC(=O)c2ccccc2)n[nH]1 | 1500 nM | –
Cc1cccc(-c2ccc(CC(=O)Nc3cc(C4CC4)[nH]n3)cc2)c1 | 9 nM | 205 nM
O=C(Cc1ccc(-c2cccc(F)c2)cc1)Nc1cc(C2CC2)[nH]n1 | 4 nM | 182 nM
COc1cccc(C(=O)Nc2cc(C3CC3)n[nH]2)c1 | 600 nM | –
O=C(Cc1ccccc1)Nc1cc(C2CC2)[nH]n1 | 48 nM | 1400 nM
CCCC(=O)Nc1cc(C)[nH]n1 | > 10000 nM | –
O=C(Cc1cccc2ccccc12)Nc1cc(C2CC2)[nH]n1 | – | 900 nM
CCCc1cc(NC(=O)c2ccc(Br)cc2)n[nH]1 | 650 nM | –

Source: ChEMBL document CHEMBL1148336, “3-Aminopyrazole inhibitors of CDK2/cyclin A as antitumor agents. 1. Lead finding” (J Med Chem, 2004)
